{"source": "patent US12268674B2", "about": "“Mi-2β inhibitor as an immunotherapy agent” (BioVentures, LLC, priority 2021, dated 2025)", "key": {"[1]": {"target": "T1, CCT5 (Homo sapiens, UniProt P48643)", "T1 construct": "to get the native cell lysate; host or cells: A375 cell lysate", "test": "ATPase profile (ATP acyl phosphate probe)", "format": "binding", "conditions": "CCT5, SEQ ID NO: 54, ATP BS"}, "[2]": {"target": "PSMC4 (Homo sapiens, UniProt P43686)", "test": "ATPase profile (ATP acyl phosphate probe)", "format": "binding", "conditions": "PSMC4, SEQ ID NO: 176, ATP BS"}, "[3]": {"target": "T2, VCP (Homo sapiens, UniProt P55072)", "T2 construct": "to get the native cell lysate; endogenous in cells; host or cells: A375 cell lysate", "T2 sequence (P55072 2-806 limits assumed)": "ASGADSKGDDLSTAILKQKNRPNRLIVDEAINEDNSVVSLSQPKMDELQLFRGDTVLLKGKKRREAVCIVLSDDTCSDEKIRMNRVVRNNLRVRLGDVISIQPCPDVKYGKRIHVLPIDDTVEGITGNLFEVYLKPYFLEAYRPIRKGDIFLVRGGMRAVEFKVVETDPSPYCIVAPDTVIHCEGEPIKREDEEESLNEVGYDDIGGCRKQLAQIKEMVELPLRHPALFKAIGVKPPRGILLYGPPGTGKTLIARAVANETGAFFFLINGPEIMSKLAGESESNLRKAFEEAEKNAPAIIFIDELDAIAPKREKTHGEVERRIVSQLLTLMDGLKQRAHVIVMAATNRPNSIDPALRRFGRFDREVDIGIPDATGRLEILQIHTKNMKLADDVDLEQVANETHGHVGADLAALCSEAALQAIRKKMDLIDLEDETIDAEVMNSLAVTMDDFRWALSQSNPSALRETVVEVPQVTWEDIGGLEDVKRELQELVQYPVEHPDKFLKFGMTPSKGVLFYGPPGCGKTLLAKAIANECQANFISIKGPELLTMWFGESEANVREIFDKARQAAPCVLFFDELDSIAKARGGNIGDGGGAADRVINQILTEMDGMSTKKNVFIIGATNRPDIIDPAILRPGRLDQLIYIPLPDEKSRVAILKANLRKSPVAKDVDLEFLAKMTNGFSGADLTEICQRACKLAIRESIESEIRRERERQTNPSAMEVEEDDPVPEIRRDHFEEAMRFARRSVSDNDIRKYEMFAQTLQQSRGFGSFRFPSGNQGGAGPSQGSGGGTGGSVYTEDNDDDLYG", "test": "ATPase profile (ATP acyl phosphate probe)", "format": "binding"}, "[4]": {"target": "T3, ABCC10 (Homo sapiens, UniProt Q5T3U5)", "T3 construct": "to get the native cell lysate; host or cells: A375 cell lysate", "test": "ATPase profile (ATP acyl phosphate probe)", "format": "binding", "conditions": "ABCC10, SEQ ID NO: 7, ATP BS"}, "[5]": {"target": "T4, PSMC3 (Homo sapiens, UniProt P17980)", "T4 construct": "to get the native cell lysate; endogenous in cells; host or cells: A375 cell lysate", "test": "ATPase profile (ATP acyl phosphate probe)", "format": "binding", "conditions": "PSMC3, SEQ ID NO: 175, ATP BS"}, "[6]": {"target": "T5, ABCC2 (Homo sapiens, UniProt Q92887)", "T5 construct": "to get the native cell lysate; host or cells: A375 cell lysate", "test": "ATPase profile (ATP acyl phosphate probe)", "format": "binding", "conditions": "ABCC2, SEQ ID NO: 8, ATP BS"}, "[7]": {"target": "T6, XRCC3 (Homo sapiens, UniProt O43542)", "T6 construct": "to get the native cell lysate; endogenous in cells; host or cells: A375 cell lysate", "test": "ATPase profile (ATP acyl phosphate probe)", "format": "binding", "conditions": "XRCC3, SEQ ID NO: 230, ATP BS"}, "[8]": {"target": "T7, ACTR2 (Homo sapiens, UniProt P61160)", "T7 construct": "to get the native cell lysate; host or cells: A375 cell lysate", "test": "ATPase profile (ATP acyl phosphate probe)", "format": "binding"}, "[9]": {"target": "T8, RFC4 (Homo sapiens, UniProt P35249)", "T8 construct": "to get the native cell lysate; endogenous in cells; host or cells: A375 cell lysate", "test": "ATPase profile (ATP acyl phosphate probe)", "format": "binding", "conditions": "RFC4, SEQ ID NO: 185, ATP BS"}, "[10]": {"target": "T9, AK1 (Homo sapiens, UniProt P00568)", "T9 construct": "to get the native cell lysate; host or cells: A375 cell lysate", "T9 sequence (P00568 whole entry)": "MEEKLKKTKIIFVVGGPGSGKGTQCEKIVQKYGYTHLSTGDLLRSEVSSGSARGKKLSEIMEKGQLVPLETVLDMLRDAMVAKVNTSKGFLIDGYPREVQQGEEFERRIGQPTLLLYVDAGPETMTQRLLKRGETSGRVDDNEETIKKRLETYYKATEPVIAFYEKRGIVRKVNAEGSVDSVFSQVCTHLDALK", "test": "ATPase profile (ATP acyl phosphate probe)", "format": "binding"}, "[11]": {"target": "T10, ATAD1 (Homo sapiens, UniProt Q8NBU5)", "T10 construct": "to get the native cell lysate; host or cells: A375 cell lysate", "T10 sequence (Q8NBU5 whole entry)": "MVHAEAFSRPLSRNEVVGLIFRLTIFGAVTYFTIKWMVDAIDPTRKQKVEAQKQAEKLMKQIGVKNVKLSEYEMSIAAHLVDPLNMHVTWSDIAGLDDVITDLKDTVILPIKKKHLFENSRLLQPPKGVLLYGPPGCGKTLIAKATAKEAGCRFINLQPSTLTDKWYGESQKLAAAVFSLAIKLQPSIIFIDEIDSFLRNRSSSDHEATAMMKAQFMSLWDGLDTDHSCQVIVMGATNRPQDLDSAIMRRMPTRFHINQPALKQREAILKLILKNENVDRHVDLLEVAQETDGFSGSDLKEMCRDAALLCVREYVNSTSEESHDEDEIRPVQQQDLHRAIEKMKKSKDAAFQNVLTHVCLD", "test": "ATPase profile (ATP acyl phosphate probe)", "format": "binding", "conditions": "ATAD1, SEQ ID NO: 44, ATP BS"}, "[12]": {"target": "T11, NDUFA10 (Homo sapiens, UniProt O95299)", "T11 construct": "to get the native cell lysate; endogenous in cells; host or cells: A375", "test": "ATPase profile (ATP acyl phosphate probe)", "format": "binding", "conditions": "NDUFA10, SEQ ID NO: 132, ATP BS"}, "[13]": {"target": "T12, ACLY (Homo sapiens, UniProt P53396)", "T12 construct": "to get the native cell lysate; host or cells: A375 cell lysate", "T12 sequence (P53396 whole entry)": "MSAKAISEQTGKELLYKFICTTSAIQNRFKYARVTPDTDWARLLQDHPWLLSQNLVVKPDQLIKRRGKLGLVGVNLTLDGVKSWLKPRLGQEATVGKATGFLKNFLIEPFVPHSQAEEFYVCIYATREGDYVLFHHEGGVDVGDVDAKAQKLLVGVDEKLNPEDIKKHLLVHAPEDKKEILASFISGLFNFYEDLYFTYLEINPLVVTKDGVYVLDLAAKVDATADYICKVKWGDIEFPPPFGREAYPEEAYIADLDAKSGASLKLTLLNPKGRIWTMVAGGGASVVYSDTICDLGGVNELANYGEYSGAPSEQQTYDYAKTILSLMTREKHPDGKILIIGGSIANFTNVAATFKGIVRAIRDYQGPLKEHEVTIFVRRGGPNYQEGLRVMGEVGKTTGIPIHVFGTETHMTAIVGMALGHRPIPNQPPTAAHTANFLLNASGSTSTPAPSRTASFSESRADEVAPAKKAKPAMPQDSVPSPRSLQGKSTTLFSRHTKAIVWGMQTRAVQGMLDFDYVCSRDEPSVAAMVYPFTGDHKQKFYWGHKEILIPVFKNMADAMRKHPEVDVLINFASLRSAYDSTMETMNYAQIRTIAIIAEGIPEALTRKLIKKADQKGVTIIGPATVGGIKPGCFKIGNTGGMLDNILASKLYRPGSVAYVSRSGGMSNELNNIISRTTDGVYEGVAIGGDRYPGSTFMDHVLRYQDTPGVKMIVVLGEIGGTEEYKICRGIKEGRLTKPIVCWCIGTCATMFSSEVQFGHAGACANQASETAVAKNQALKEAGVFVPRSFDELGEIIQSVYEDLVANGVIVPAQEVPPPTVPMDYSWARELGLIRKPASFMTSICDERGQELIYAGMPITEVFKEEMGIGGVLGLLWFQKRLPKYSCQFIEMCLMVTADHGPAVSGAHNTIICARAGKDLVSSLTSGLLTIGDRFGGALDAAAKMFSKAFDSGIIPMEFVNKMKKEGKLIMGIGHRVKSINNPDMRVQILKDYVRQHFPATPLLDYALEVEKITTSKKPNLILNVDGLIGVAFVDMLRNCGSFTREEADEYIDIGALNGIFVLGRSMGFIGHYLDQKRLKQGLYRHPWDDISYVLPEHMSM", "test": "ATPase profile (ATP acyl phosphate probe)", "format": "binding"}, "[14]": {"tested_on": "Mi-2β function (CXCL9, CXCL10, IRF1 expression) in A375 cells", "test": "Cell-based assay of inhibitory activity on Mi-2β function, A375", "conditions": "summary of Table 3 (A375 and B16)", "experimental": "The total RNA was extracted with QIAGEN RNeasy kit […] for cDNA synthesis with SuperScript II Reverse Transcriptase (Invitrogen). In total, 40 ng cDNA was used for quantitative real-time PCR amplification by TaqMan Gene Expression Master Mix (Thermo Fisher Scientific). The relative transcript levels were normalized with GAPDH expression. The data were calculated with the comparative CT method."}, "[15]": {"target": "T13, (Homo sapiens, UniProt Q9HCK8)", "T13 construct": "to get the native cell lysate; host or cells: A375 cell lysate", "test": "ATPase profile (ATP acyl phosphate probe)", "format": "binding", "conditions": "CIID8, SEQ ID NO: 57, ATP BS"}, "[16]": {"target": "T14, CPS1 (Homo sapiens, UniProt P31327)", "T14 construct": "endogenous in cells; host or cells: A375 cell lysate", "test": "ATPase profile (ATP acyl phosphate probe)", "format": "binding", "conditions": "CPS1, SEQ ID NO: 64, labeling site Other"}, "[17]": {"target": "T15, AHCY (Homo sapiens, UniProt P23526)", "T15 construct": "to get the native cell lysate; host or cells: A375 cell lysate", "test": "ATPase profile (ATP acyl phosphate probe)", "format": "binding", "conditions": "SEQ ID NO: 30, ATP BS"}, "[18]": {"target": "T16, YME1L1 (Homo sapiens, UniProt Q96TA2)", "T16 construct": "to get the native cell lysate; endogenous in cells; host or cells: A375 cell lysate", "test": "ATPase profile (ATP acyl phosphate probe)", "format": "binding", "conditions": "YME1L1, SEQ ID NO: 233, ATP BS"}, "[19]": {"target": "T17, PEX1 (Homo sapiens, UniProt O43933)", "T17 construct": "to get the native cell lysate; endogenous in cells; host or cells: A375 cell lysate", "test": "ATPase profile (ATP acyl phosphate probe)", "format": "binding", "conditions": "PEX1, SEQ ID NO: 156, ATP BS"}, "[20]": {"target": "T18, HPRT1 (Homo sapiens, UniProt P00492)", "T18 construct": "to get the native cell lysate; endogenous in cells; host or cells: A375", "T18 sequence (P00492 whole entry)": "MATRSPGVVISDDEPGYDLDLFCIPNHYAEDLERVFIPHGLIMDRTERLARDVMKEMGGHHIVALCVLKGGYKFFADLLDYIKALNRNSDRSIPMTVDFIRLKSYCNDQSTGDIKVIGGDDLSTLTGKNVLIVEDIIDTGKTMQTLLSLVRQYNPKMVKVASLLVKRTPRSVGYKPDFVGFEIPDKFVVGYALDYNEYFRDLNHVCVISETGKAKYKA", "test": "ATPase profile (ATP acyl phosphate probe)", "format": "binding", "conditions": "HPRT1, SEQ ID NO: 93, ATP BS"}, "[21]": {"target": "T19, MCM4 (Homo sapiens, UniProt P33991)", "T19 construct": "to get the native cell lysate; endogenous in cells; host or cells: A375", "test": "ATPase profile (ATP acyl phosphate probe)", "format": "binding", "conditions": "MCM4, SEQ ID NO: 118, ATP BS; read-out: Inhibition (%) by 1 μM Z36-MP5"}, "[22]": {"target": "T20, OLA1 (Homo sapiens, UniProt Q9NTK5)", "T20 construct": "to get the native cell lysate; endogenous in cells; host or cells: A375", "T20 sequence (Q9NTK5 whole entry)": "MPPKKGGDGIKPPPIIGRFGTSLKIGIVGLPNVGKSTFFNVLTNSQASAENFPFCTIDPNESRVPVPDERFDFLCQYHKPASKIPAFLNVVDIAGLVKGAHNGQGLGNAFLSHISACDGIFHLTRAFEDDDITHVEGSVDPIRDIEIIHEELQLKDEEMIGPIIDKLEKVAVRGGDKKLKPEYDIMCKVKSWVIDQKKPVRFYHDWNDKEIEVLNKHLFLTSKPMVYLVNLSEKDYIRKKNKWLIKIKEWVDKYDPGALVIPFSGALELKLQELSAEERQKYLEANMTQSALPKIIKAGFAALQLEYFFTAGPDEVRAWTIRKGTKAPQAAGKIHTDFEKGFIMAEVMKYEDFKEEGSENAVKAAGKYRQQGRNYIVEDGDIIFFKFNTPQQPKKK", "test": "ATPase profile (ATP acyl phosphate probe)", "format": "binding", "conditions": "OLA1, SEQ ID NO: 150, ATP BS"}, "[23]": {"target": "T21, ABCC1 (Homo sapiens, UniProt P33527)", "T21 construct": "to get the native cell lysate; host or cells: A375 cell lysate", "T21 sequence (P33527 whole entry)": "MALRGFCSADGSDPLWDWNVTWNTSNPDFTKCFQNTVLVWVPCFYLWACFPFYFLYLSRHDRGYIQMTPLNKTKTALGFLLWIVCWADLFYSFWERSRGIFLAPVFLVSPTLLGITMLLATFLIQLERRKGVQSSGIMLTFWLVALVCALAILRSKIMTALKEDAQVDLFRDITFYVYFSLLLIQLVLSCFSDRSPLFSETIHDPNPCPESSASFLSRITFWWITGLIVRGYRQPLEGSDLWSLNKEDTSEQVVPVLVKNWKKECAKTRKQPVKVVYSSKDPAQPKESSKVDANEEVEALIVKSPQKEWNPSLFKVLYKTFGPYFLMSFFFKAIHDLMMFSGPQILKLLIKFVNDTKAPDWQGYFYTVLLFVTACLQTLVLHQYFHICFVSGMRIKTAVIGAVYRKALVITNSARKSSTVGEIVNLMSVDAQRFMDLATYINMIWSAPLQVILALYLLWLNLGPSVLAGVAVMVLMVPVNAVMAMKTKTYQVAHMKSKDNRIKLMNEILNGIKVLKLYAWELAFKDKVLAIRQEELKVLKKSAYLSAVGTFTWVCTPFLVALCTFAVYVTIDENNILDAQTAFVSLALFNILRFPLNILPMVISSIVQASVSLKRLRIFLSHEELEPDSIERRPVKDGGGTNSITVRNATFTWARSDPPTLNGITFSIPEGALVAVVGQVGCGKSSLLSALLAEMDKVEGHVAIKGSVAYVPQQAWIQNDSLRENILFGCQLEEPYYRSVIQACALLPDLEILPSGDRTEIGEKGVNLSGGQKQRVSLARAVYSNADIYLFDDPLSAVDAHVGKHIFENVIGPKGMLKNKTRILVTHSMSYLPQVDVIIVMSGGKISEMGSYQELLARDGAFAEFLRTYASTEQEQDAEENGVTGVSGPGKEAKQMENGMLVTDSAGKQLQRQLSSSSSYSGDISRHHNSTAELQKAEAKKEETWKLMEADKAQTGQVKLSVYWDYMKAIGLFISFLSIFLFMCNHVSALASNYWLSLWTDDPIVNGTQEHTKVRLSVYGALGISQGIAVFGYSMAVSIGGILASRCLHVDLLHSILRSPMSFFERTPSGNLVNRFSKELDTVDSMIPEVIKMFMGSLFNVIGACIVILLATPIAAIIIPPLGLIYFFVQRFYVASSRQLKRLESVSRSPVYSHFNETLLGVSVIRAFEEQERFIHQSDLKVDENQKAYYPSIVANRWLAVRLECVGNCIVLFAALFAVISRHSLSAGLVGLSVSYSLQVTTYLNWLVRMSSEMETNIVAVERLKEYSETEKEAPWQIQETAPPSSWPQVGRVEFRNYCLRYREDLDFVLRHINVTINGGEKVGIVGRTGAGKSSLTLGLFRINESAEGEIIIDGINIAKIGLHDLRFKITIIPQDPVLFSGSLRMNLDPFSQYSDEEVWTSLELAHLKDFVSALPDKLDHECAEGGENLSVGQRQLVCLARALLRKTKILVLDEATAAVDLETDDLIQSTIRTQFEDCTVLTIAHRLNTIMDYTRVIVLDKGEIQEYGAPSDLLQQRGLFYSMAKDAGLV", "test": "ATPase profile (ATP acyl phosphate probe)", "format": "binding"}, "[24]": {"target": "T22, AFG3L2 (Homo sapiens, UniProt Q9Y4W6)", "T22 construct": "to get the native cell lysate; host or cells: A375 cell lysate", "test": "ATPase profile (ATP acyl phosphate probe)", "format": "binding", "conditions": "AFG3L2, SEQ ID NO: 29, ATP BS"}, "[25]": {"target": "T23, APRT (Homo sapiens, UniProt P07741)", "T23 construct": "to get the native cell lysate; host or cells: A375 cell lysate", "test": "ATPase profile (ATP acyl phosphate probe)", "format": "binding", "conditions": "SEQ ID NO: 40, ATP BS"}, "[26]": {"target": "UBA1 (Homo sapiens, UniProt P22314)", "test": "ATPase profile (ATP acyl phosphate probe)", "format": "binding", "conditions": "UBA1, SEQ ID NO: 217, ATP BS"}, "[27]": {"target": "T24, TOR4A (Homo sapiens, UniProt Q9NXH8)", "T24 construct": "to get the native cell lysate; endogenous in cells; host or cells: A375 cell lysate", "T24 sequence (Q9NXH8 whole entry)": "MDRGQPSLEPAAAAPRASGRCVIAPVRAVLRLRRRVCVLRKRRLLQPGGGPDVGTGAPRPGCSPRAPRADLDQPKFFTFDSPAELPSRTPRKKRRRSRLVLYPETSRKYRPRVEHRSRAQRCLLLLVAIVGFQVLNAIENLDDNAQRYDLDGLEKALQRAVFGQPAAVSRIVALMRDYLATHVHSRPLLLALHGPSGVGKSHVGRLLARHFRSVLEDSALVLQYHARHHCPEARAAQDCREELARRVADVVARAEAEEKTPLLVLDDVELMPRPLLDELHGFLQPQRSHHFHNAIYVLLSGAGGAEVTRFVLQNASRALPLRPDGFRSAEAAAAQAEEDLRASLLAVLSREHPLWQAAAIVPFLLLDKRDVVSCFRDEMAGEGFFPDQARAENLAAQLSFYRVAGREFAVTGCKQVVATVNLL", "test": "ATPase profile (ATP acyl phosphate probe)", "format": "binding", "conditions": "SEQ ID NO: 207, ATP BS"}, "[28]": {"target": "T25, RBKS (Homo sapiens, UniProt Q9H477)", "T25 construct": "to get the native cell lysate; endogenous in cells; host or cells: A375 cell lysate", "test": "ATPase profile (ATP acyl phosphate probe)", "format": "binding", "conditions": "SEQ ID NO: 182, ATP BS"}}, "data": [{"smiles": "Cn1c(=O)[nH]c2ccc(-c3cccc(C(=O)NC4CCn5ccnc5C4)c3)cc21", "note": "(centres unmarked) [Z36-MP5, 3-(3-methyl-2-oxo-2,3-dihydro-1H-benzo[d]imidazol-5-yl)-N-(5,6,7,8-tetrahydroimidazo[1,2-a]pyridin-7-yl)benzamide]", "values": [{"measurement": "Inhibition (%) by 1 μM Z36-MP5", "setting": "[1]", "result": "−2.48", "unit": "%"}, {"measurement": "Inhibition (%) by 1 μM Z36-MP5", "setting": "[2]", "result": 13.36, "unit": "%"}, {"measurement": "Inhibition (%) by 1 μM Z36-MP5", "setting": "[3]; SEQ ID NO: 225, ATP BS", "result": "−8.02", "unit": "%"}, {"measurement": "Inhibition (%) by 1 μM Z36-MP5", "setting": "[3]; SEQ ID NO: 226, ATP BS", "result": "−2.36", "unit": "%"}, {"measurement": "Inhibition (%) by 1 μM Z36-MP5", "setting": "[3]; SEQ ID NO: 227, ATP BS", "result": "−7.20", "unit": "%"}, {"measurement": "Inhibition (%) by 1 μM Z36-MP5", "setting": "[3]; SEQ ID NO: 228, ATP BS", "result": 7.80, "unit": "%"}, {"measurement": "Inhibition (%) by 1 μM Z36-MP5", "setting": "[4]", "result": "−3.83", "unit": "%"}, {"measurement": "Inhibition (%) by 1 μM Z36-MP5", "setting": "[5]", "result": 5.71, "unit": "%"}, {"measurement": "Inhibition (%) by 1 μM Z36-MP5", "setting": "[6]", "result": 4.09, "unit": "%"}, {"measurement": "Inhibition (%) by 1 μM Z36-MP5", "setting": "[7]", "result": "−4.81", "unit": "%"}, {"measurement": "Inhibition (%) by 1 μM Z36-MP5", "setting": "[8]; ACTR2, SEQ ID NO: 25, ATP BS", "result": "−16.82", "unit": "%"}, {"measurement": "Inhibition (%) by 1 μM Z36-MP5", "setting": "[8]; ACTR2, SEQ ID NO: 26, ATP BS", "result": "−2.20", "unit": "%"}, {"measurement": "Inhibition (%) by 1 μM Z36-MP5", "setting": "[9]", "result": "−6.66", "unit": "%"}, {"measurement": "Inhibition (%) by 1 μM Z36-MP5", "setting": "[10]; AK1, SEQ ID NO: 31, ATP BS", "result": "−7.19", "unit": "%"}, {"measurement": "Inhibition (%) by 1 μM Z36-MP5", "setting": "[10]; AK1, SEQ ID NO: 32, ATP BS", "result": "−9.87", "unit": "%"}, {"measurement": "Inhibition (%) by 1 μM Z36-MP5", "setting": "[11]", "result": 15.67, "unit": "%"}, {"measurement": "Inhibition (%) by 1 μM Z36-MP5", "setting": "[12]", "result": 14.09, "unit": "%"}, {"measurement": "Inhibition (%) by 1 μM Z36-MP5", "setting": "[13]; SEQ ID NO: 22, ATP BS", "result": "−6.87", "unit": "%"}, {"measurement": "Inhibition (%) by 1 μM Z36-MP5", "setting": "[13]; SEQ ID NO: 23, ATP BS", "result": 2.00, "unit": "%"}, {"measurement": "inhibitory activity on Mi-2β function (enhanced expression of IFN-γ-responsive genes)", "setting": "[14]", "result": "most effective compound"}, {"measurement": "Inhibition (%) by 1 μM Z36-MP5", "setting": "[15]", "result": "−44.26", "unit": "%"}, {"measurement": "Inhibition (%) by 1 μM Z36-MP5", "setting": "[16]", "result": 1.16, "unit": "%"}, {"measurement": "Inhibition (%) by 1 μM Z36-MP5", "setting": "[17]", "result": "−10.85", "unit": "%"}, {"measurement": "Inhibition (%) by 1 μM Z36-MP5", "setting": "[18]", "result": "−10.37", "unit": "%"}, {"measurement": "Inhibition (%) by 1 μM Z36-MP5", "setting": "[19]", "result": "−4.27", "unit": "%"}, {"measurement": "Inhibition (%) by 1 μM Z36-MP5", "setting": "[20]", "result": 12.92, "unit": "%"}, {"measurement": "inhibition at 1 µM", "setting": "[21]", "result": 4.98, "unit": "%"}, {"measurement": "Inhibition (%) by 1 μM Z36-MP5", "setting": "[22]", "result": "−0.68", "unit": "%"}, {"measurement": "Inhibition (%) by 1 μM Z36-MP5", "setting": "[23]; ABCC1, SEQ ID NO: 5, ATP BS", "result": "−0.23", "unit": "%"}, {"measurement": "Inhibition (%) by 1 μM Z36-MP5", "setting": "[23]; ABCC1, SEQ ID NO: 6, ATP BS", "result": "−7.84", "unit": "%"}, {"measurement": "Inhibition (%) by 1 μM Z36-MP5", "setting": "[24]", "result": "−4.85", "unit": "%"}, {"measurement": "Inhibition (%) by 1 μM Z36-MP5", "setting": "[25]", "result": 0.39, "unit": "%"}, {"measurement": "Inhibition (%) by 1 μM Z36-MP5", "setting": "[26]", "result": "−4.55", "unit": "%"}, {"measurement": "Inhibition (%) by 1 μM Z36-MP5", "setting": "[27]", "result": 5.38, "unit": "%"}, {"measurement": "Inhibition (%) by 1 μM Z36-MP5", "setting": "[28]", "result": "−1.64", "unit": "%"}]}]}
